Several values for one entry are separate records, joined by “and”; a condition that tells them apart may be missing. Equal entries are not always repeated. Where two headings read alike, the source gives them in different places. Each block holds one molecule with its values, some of them ahead of it. Bridge positions count the residues as written; N and C are the ends. Ends that are not written are not given here. Peptide text beside a SMILES is read from it.
What was measured:
sPHGDH (1-307) = target: T1, sPHGDH (1-307) (Homo sapiens, UniProt O43175); assay: sPHGDH enzyme activity assay (NADH fluorescence); type: biochemical; details: sPHGDH; 12 h pre-incubation; read-out: IC50 Value
T1 construct: the truncated version of PHGDH (sPHGDH, 1-307); made in house
T1 sequence (O43175 1-307): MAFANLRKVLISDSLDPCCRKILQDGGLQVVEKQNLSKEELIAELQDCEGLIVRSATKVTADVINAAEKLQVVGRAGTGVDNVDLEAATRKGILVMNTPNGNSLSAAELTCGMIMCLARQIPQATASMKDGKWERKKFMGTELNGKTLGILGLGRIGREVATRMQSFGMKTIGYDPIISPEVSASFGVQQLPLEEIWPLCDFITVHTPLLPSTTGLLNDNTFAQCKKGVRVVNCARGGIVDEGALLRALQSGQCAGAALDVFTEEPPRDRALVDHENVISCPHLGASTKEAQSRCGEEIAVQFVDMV
Experimental: (§1) PHGDH activity in the presence of peptides was measured in 96-well plates (100 μL per well) at 25 °C, through monitoring the NADH fluorescence (excitation at 360 nm and emission at 460 nm) over time. PAST1 and its substrate glutamate were also included in order to prevent product inhibition. In the enzyme assays, protein expression and purification, including the truncated version of PHGDH (sPHGDH, 1-307), the full-length PHGDH (1-533), and PAST1, were carried out as described in our previous papers. To evaluate the effects of peptides on enzyme activity, the peptides were pre-incubated with enzyme samples (sPHGDH 453.3 nM or PHGDH 30.9 nM) in the assay buffer (HEPES 50 mM, pH 7.5, 10 mM MgCl2, and 1 mM EDTA) for 12 h. Then, 1.98 μM PAST1, 1 mM NAD^+, and 30 mM glutamate were added and pre-incubated for 10 min before initiating the enzyme reaction via the addition of the substrate (1 mM 3-PG). Fluorescence signals were recorded for 3 min with the kinetics-reading mode of the Biotek plate reader (Synergy). IC50 values were obtained through fitting the data using a three-parameter Hill model of the graph of log dose against the percentage inhibition from three repeated experiments. For those peptides containing two disulfide bonds, a second step of oxidation reaction was carried out to generate the second disulfide pair. […] The purified Acm-protected peptide was then treated with iodine (I2, 1 wt% in MeOH), dropwise under acidic conditions until the solution became brown.

sPHGDH = target: T2, sPHGDH (Homo sapiens, UniProt O43175); assay: Microscale Thermophoresis (MST) binding assay
T2 construct: the truncated version of PHGDH (sPHGDH, 1-307); made in house
T2 sequence (O43175 1-307): T1 sequence (O43175 1-307)
Experimental: In this study, we first used Microscale Thermophoresis assays (MST) to evaluate whether the active peptides found in the enzyme inhibition assay directly bind sPHGDH (Table 2).
The binding affinity between the recombinant sPHGDH and cyclic peptides was measured with a NanoTemper Monolith NT.115 instrument (NanoTemper Technologies, Munich, Germany). sPHGDH was first adjusted to a concentration of 10 μM and then labeled with Monolith™ NT.115 Protein Labeling Kit RED-NHS (NanoTemper Technologies, Germany), according to the protocol of the manufacturer. After the protein labeling experiment was completed, sPHGDH was diluted with binding buffer (50 mM HEPES, pH 7.5, 1 mM EDTA, 10 mM MgCl2, 100 mM NaCl, and 0.005% Tween 20) to ensure that the fluorescent intensity of sPHGDH during the MST assay was about 500 RU. In this assay, the final concentration of sPHGDH after mixing with the peptide was 20 nM. Subsequently, the peptides were serially diluted in binding buffer (16 points, 1:2 dilutions, from 0.5 mM), then mixed and incubated with an equal volume of diluted sPHGDH at room temperature for 16 h. After incubation, the samples were loaded into premium treated capillaries and measured by the NanoTemper Monolith NT.115 instrument (NanoTemper Technologies, Germany). […]

[1] = target: T3, full-length PHGDH (1-533) (Homo sapiens, UniProt O43175); assay: full-length PHGDH enzyme activity assay (NADH fluorescence); type: biochemical; details: IC50 value (μM), full-length PHGDH activity
T3 construct: the full-length PHGDH (1-533); made in house
T3 sequence (O43175 1-533): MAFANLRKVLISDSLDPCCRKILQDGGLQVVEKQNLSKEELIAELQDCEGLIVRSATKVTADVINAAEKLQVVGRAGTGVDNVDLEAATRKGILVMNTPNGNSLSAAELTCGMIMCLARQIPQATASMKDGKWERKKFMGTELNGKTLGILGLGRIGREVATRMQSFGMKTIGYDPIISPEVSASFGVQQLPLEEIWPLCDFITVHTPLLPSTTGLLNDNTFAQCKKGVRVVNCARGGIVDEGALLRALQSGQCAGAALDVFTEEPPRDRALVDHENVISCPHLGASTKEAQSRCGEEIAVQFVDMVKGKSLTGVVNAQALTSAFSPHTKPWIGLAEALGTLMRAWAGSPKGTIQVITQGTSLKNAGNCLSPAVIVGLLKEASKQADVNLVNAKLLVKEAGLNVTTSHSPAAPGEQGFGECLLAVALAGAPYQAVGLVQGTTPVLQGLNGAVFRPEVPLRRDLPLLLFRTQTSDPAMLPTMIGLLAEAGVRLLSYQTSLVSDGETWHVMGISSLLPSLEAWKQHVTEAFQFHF
Experimental: as §1

[2] = target: truncated version of PHGDH (sPHGDH, 1-307) (human) (UniProt O43175)
[3] = target: truncated version of PHGDH (sPHGDH, 1-307) (human) (UniProt O43175); remark: listed apart in the source
[4] = target: the molecule itself; assay: cross-linking; sPHGDH 5 µM with peptides (0, 10, 50, 100, 250, 500 µM) and 2.5 mM BS3 in PBS (40 mM, pH 7.3), 25 °C, 30 min; SDS/PAGE; dimer to monomers

IC50 (sPHGDH (1-307)): 5.6 ± 1.4 µM
Kd (sPHGDH; MST, sPHGDH 20 nM, 1:1 binding mode, read-out: KD): 13.4 ± 3.1 µM
Molecule: CSCC[C@@H]1NC(=O)[C@H](CO)NC(=O)[C@H](CC(C)C)NC(=O)[C@H]([C@@H](C)O)NC(=O)[C@H](C)NC(=O)[C@H](CCC(N)=O)NC(=O)[C@@H]2CCCN2C(=O)[C@H]([C@@H](C)O)NC(=O)[C@@H](NC(C)=O)CSSC[C@@H](C(=O)O)NC(=O)[C@H](CCCCN)NC(=O)[C@H](CCCCN)NC(=O)[C@H](CCC(N)=O)NC(=O)[C@H](CCC(=O)O)NC(=O)[C@H](Cc2c[nH]c3ccccc23)NC(=O)[C@H](CO)NC(=O)CNC(=O)[C@H](CC(N)=O)NC(=O)[C@H](CCCCN)NC1=O [Cyc1-12, C1TPQA TLSMK NGSWE QKKC19] (Ac-CTPQATLSMKNGSWEQKKC-OH; disulfide 1-19)

Molecule: CSCC[C@@H]1NC(=O)[C@@H]2CSSC[C@H](NC(=O)[C@H](Cc3c[nH]c4ccccc34)NC(=O)[C@H](CCCCN)NC(=O)CNC(=O)[C@H](CC(=O)O)NC(=O)[C@H](CCCNC(=N)N)NC1=O)C(=O)N[C@@H](CCCNC(=N)N)C(=O)N[C@@H](CCCCN)C(=O)N[C@@H](CCCCN)C(=O)N[C@H](C(=O)O)CSSC[C@H](NC(C)=O)C(=O)N[C@@H]([C@@H](C)O)C(=O)N1CCC[C@H]1C(=O)N[C@@H](CCC(N)=O)C(=O)N[C@@H](C)C(=O)N[C@@H]([C@@H](C)O)C(=O)N[C@@H](C)C(=O)N2 [Cyc2-3, C1TPQA TAC8MR DGKWC15 RKKC19] (Ac-CTPQATACMRDGKWCRKKC-OH; disulfide 1-19, 8-15)
Kd (sPHGDH): 5.1 ± 1 µM
IC50 [1]: 53.1 µM and 32.9 µM

IC50 of inhibition of sPHGDH enzyme activity (NADH fluorescence); the pair blocked is the sPHGDH homo-dimer (m1+m1) [2]: 13.4 µM
IC50 of inhibition of sPHGDH enzyme activity (NADH fluorescence); the pair blocked is the sPHGDH homo-dimer (m1+m1), differs from the table [3]: 13.7 µM
B1: cyclic peptide cyc1-5 (peptide)
peptide: CTPQATASMLDGKWEWKKC
modifications: disulfide 1-19; not fully specified (N-terminus); printed as C_1_TPQA TASML DGKWE WKKC_19_

B2: truncated version of PHGDH (sPHGDH, 1-307) (domain or fragment, human, UniProt O43175 1-307, looked up)
chain: T1 sequence (O43175 1-307)
modifications: labelled with Monolith NT.115 Protein Labeling Kit RED-NHS (in the MST assay only)
notes: human phosphoglycerate dehydrogenase (PHGDH), catalytic unit, residues 1-307; Exists predominantly as a homo-dimer with a small fraction of monomer; also called catalytic unit of PHGDH; source: recombinant
stoichiometry N [4]: 2

— publication PMC10563079 (Molecules, 2023)
